Source: patent US20250320213A1, “Nitrogen-Containing Heterocyclic Compounds” (Pfizer Inc., priority 2024, published 2025)

Experiments:
STAT6 = biological target: T1, STAT6 (Homo sapiens, UniProt P42226); test: STAT6 Reporter Luciferase Assay (IL-13 stimulated HaCaT keratinocyte NanoLuc reporter cells); format: cell-based; conditions: IL-13 stimulated HaCaT STAT6 NanoLuc reporter cells; read-out: Reporter EC50
T1 construct: stably transfected HaCaT keratinocyte cell line, which expresses NanoLuc luciferase reporter gene under the transcriptional control of the STAT6 responsive promoter; endogenous in cells; host or cells: HaCaT keratinocyte reporter cell line (stably transfected with a NanoLuc reporter)
T1 sequence (P42226 1-847): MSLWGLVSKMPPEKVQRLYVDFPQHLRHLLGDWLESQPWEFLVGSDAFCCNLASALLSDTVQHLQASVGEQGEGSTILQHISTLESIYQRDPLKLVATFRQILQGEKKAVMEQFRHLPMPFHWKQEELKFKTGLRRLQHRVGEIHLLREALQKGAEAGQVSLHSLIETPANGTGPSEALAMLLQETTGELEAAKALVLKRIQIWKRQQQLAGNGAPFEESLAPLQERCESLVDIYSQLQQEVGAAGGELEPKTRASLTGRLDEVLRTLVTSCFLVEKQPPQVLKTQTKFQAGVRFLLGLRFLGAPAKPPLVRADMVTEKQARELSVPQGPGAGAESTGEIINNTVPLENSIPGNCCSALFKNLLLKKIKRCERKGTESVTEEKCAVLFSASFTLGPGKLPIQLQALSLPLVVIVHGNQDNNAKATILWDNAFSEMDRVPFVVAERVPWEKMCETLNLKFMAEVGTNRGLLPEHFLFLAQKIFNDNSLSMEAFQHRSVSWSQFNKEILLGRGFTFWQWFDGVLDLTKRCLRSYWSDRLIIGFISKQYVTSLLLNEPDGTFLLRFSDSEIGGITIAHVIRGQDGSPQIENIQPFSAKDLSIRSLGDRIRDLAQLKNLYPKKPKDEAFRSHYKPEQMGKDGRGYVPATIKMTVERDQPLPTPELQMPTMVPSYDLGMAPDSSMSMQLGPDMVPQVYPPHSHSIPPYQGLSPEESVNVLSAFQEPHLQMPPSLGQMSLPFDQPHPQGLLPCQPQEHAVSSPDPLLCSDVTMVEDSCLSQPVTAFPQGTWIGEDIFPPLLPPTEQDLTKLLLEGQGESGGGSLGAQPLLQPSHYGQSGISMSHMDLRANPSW
Summary of the method: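 Cells were plated overnight, washed, exposed to compound for two hours, stimulated with IL-13 (0.12 nM final) for four hours at 37 °C, and then lysed with Nano-Glo substrate for 15 min before luminescence reading.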

[1] = tested on: CCL17 secretion in peripheral human whole blood; test: Human Whole Blood (HWB) CCL17 TR-FRET Assay (IL-13 stimulated CCL17 secretion); format: cell-based; conditions: Homo sapiens, 48 h, human whole blood
Summary of the method: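 IC50 values reflect inhibition of IL-13-driven CCL17 release in human whole blood. Blood was preincubated with compound 2 h, stimulated 48 h at 37 °C with IL-13 (10 ng/mL final), and serum CCL17 was measured by TR-FRET.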

SMILES	EC50 (STAT6) [nM]	IC50 ([1]; IL-13 stimulated) [nM]	IC50 ([1]; 10 ng/mL IL13, 48 hours) [nM]
CCn1nc(C(=O)NCc2ccc(NC(=O)N(C)C)cc2)c2c1CCN(c1ccc(C(=O)N(C)C)cn1)[C@H]2C [Example 512, (S)-5-(5-(dimethylcarbamoyl)pyridin-2-yl)-N-(4-(3,3-dimethylureido)benzyl)-1-ethyl-4-methyl-4,5,6,7-tetrahydro-1H-pyrazolo[4,3-c]pyridine-3-carboxamide]	240	2510	
CCn1nc(C(=O)NCc2ccc(NC(=O)N(C)C)cc2)c2c1CCN(c1ccc(C(=O)N(C)C)cn1)[C@@H]2C [Example 513, (R)-5-(5-(dimethylcarbamoyl)pyridin-2-yl)-N-(4-(3,3-dimethylureido)benzyl)-1-ethyl-4-methyl-4,5,6,7-tetrahydro-1H-pyrazolo[4,3-c]pyridine-3-carboxamide]	3	18	
CC(C)n1nc(C(=O)NCc2ccc(C(N)=O)cc2)c2c1[C@@H](C)CN(c1ccc(N3CCOC3=O)cn1)C2 [Example 517, (S)-N-(4-carbamoylbenzyl)-1-isopropyl-7-methyl-5-(5-(2-oxooxazolidin-3-yl)pyridin-2-yl)-4,5,6,7-tetrahydro-1H-pyrazolo[4,3-c]pyridine-3-carboxamide]	9	33	
Cc1c[nH]c(-c2ccc(CNC(=O)c3nn(C(C)C)c4c3CN(c3ncc(N5CCOC5=O)cn3)C[C@@H]4C)cc2)n1 [Example 519, (S)-1-isopropyl-7-methyl-N-(4-(4-methyl-1H-imidazol-2-yl)benzyl)-5-(5-(2-oxooxazolidin-3-yl)pyrimidin-2-yl)-4,5,6,7-tetrahydro-1H-pyrazolo[4,3-c]pyridine-3-carboxamide]	8	219	
CNC(=O)Nc1ccc(CNC(=O)c2n[nH]c3c2CN(c2ccc(C(=O)N(C)C)cn2)CC3)cc1 [Example 526, 5-(5-(dimethylcarbamoyl)pyridin-2-yl)-N-(4-(3-methylureido)benzyl)-4,5,6,7-tetrahydro-1H-pyrazolo[4,3-c]pyridine-3-carboxamide]	4010	2040	
CC(C)n1nc(C(=O)NCc2ccc(NC(=O)N(C)C)cn2)c2c1C[C@H](C)N(c1ncc(C(=O)N(C)C)cn1)C2 [Example 533, (S)-5-(5-(dimethylcarbamoyl)pyrimidin-2-yl)-N-((5-(3,3-dimethylureido)pyridin-2-yl)methyl)-1-isopropyl-6-methyl-4,5,6,7-tetrahydro-1H-pyrazolo[4,3-c]pyridine-3-carboxamide]	5		18
CNC(=O)c1ccc(CNC(=O)c2nn(C(C)C)c3c2CN(c2ncc(C(=O)N(C)C)cn2)[C@@H](C)C3)cc1 [Example 534, (S)-5-(5-(dimethylcarbamoyl)pyrimidin-2-yl)-1-isopropyl-6-methyl-N-(4-(methylcarbamoyl)benzyl)-4,5,6,7-tetrahydro-1H-pyrazolo[4,3-c]pyridine-3-carboxamide]	33		155
CC(C)n1nc(C(=O)NCc2ccc(NC(=O)N(C)C)cn2)c2c1C[C@H](C)N(c1ccc(C(=O)N(C)C)cn1)C2 [Example 535, (S)-5-(5-(dimethylcarbamoyl)pyridin-2-yl)-N-((5-(3,3-dimethylureido)pyridin-2-yl)methyl)-1-isopropyl-6-methyl-4,5,6,7-tetrahydro-1H-pyrazolo[4,3-c]pyridine-3-carboxamide]	5		13
CC(C)n1nc(C(=O)NCc2ccc(-c3ncc[nH]3)cc2)c2c1C[C@H](C)N(c1ccc(C(=O)N(C)C)cn1)C2 [Example 536, (S)-N-(4-(1H-imidazol-2-yl)benzyl)-5-(5-(dimethylcarbamoyl)pyridin-2-yl)-1-isopropyl-6-methyl-4,5,6,7-tetrahydro-1H-pyrazolo[4,3-c]pyridine-3-carboxamide]	4		31
CNC(=O)c1ccc(CNC(=O)c2nn(C(C)C)c3c2CN(c2ccc(C(=O)N(C)C)cn2)[C@@H](C)C3)cc1 [Example 540, (S)-5-(5-(dimethylcarbamoyl)pyridin-2-yl)-1-isopropyl-6-methyl-N-(4-(methylcarbamoyl)benzyl)-4,5,6,7-tetrahydro-1H-pyrazolo[4,3-c]pyridine-3-carboxamide]	27		76
CCn1nc(C(=O)NCc2ccc(NC(=O)N(C)C)cc2)c2c1C1(CC1)CN(c1ccc(C(=O)N(C)C)cn1)C2 [Example 555, 5′-(5-(dimethylcarbamoyl)pyridin-2-yl)-N-(4-(3,3-dimethylureido)benzyl)-1′-ethyl-1′,4′,5′,6′-tetrahydrospiro[cyclopropane-1,7′-pyrazolo[4,3-c]pyridine]-3′-carboxamide]	5		52
CC(C)n1nc(C(=O)NCc2ccc(NC(N)=O)cc2)c2c1[C@@H](C)CN(c1ncc(-c3nccn3C)cn1)C2 [Example 562, (S)-1-isopropyl-7-methyl-5-(5-(1-methyl-1H-imidazol-2-yl)pyrimidin-2-yl)-N-(4-ureidobenzyl)-4,5,6,7-tetrahydro-1H-pyrazolo[4,3-c]pyridine-3-carboxamide]	3		8
CC(C)n1nc(C(=O)NCc2ccc(NC(=O)N3CCNCC3)c(F)c2)c2c1[C@@H](C)CN(c1ccc(C(=O)N(C)C)cc1)C2 [Example 566, (S)-5-(4-(dimethylcarbamoyl)phenyl)-N-(3-fluoro-4-(piperazine-1-carboxamido)benzyl)-1-isopropyl-7-methyl-4,5,6,7-tetrahydro-1H-pyrazolo[4,3-c]pyridine-3-carboxamide]	2		15

Other lines, results leading:

EC50 (STAT6) [nM]	IC50 ([1]; IL-13 stimulated) [nM]	IC50 ([1]; 10 ng/mL IL13, 48 hours) [nM]	SMILES
1	5		CC(C)n1nc(C(=O)NCc2ccc(NC(N)=O)cc2)c2c1[C@@H](C)CN(c1ccc(-c3nccn3C)cn1)C2 [Example 516, (S)-1-isopropyl-7-methyl-5-(5-(1-methyl-1H-imidazol-2-yl)pyridin-2-yl)-N-(4-ureidobenzyl)-4,5,6,7-tetrahydro-1H-pyrazolo[4,3-c]pyridine-3-carboxamide]
2	71		Cc1c[nH]c(-c2ccc(CNC(=O)c3nn(C(C)C)c4c3CN(c3ccc(N5CCOC5=O)cn3)C[C@@H]4C)cc2)n1 [Example 518, (S)-1-isopropyl-7-methyl-N-(4-(4-methyl-1H-imidazol-2-yl)benzyl)-5-(5-(2-oxooxazolidin-3-yl)pyridin-2-yl)-4,5,6,7-tetrahydro-1H-pyrazolo[4,3-c]pyridine-3-carboxamide]
1	22		CNC(=O)Nc1ccc(CNC(=O)c2nn(C(C)C)c3c2CN(c2ccc(N4CCOC4=O)cn2)C[C@@H]3C)cc1 [Example 520, (S)-1-isopropyl-7-methyl-N-(4-(3-methylureido)benzyl)-5-(5-(2-oxooxazolidin-3-yl)pyridin-2-yl)-4,5,6,7-tetrahydro-1H-pyrazolo[4,3-c]pyridine-3-carboxamide]
2	34		CNC(=O)Nc1ccc(CNC(=O)c2nn(C(C)C)c3c2CN(c2ccc(-n4c(C)nn(C)c4=O)cn2)C[C@@H]3C)cc1 [Example 521, (S)-5-(5-(1,3-dimethyl-5-oxo-1,5-dihydro-4H-1,2,4-triazol-4-yl)pyridin-2-yl)-1-isopropyl-7-methyl-N-(4-(3-methylureido)benzyl)-4,5,6,7-tetrahydro-1H-pyrazolo[4,3-c]pyridine-3-carboxamide]
2	7		CC(C)n1nc(C(=O)NCc2ccc(NC(=O)N3CCNCC3)cc2)c2c1[C@@H](C)CN(c1ccc(C(=O)N(C)C)cc1)C2 [Example 525, (S)-5-(4-(dimethylcarbamoyl)phenyl)-1-isopropyl-7-methyl-N-(4-(piperazine-1-carboxamido)benzyl)-4,5,6,7-tetrahydro-1H-pyrazolo[4,3-c]pyridine-3-carboxamide]
0.2		6	CC(C)n1nc(C(=O)NCc2ccc(NC(=O)N(C)C)cc2)c2c1[C@@H](C)CN(c1ccc(N3CCCC3=O)cn1)C2 [Example 530, (S)—N-(4-(3,3-Dimethylureido)benzyl)-1-isopropyl-7-methyl-5-(5-(2-oxopyrrolidin-1-yl)pyridin-2-yl)-4,5,6,7-tetrahydro-1H-pyrazolo[4,3-c]pyridine-3-carboxamide]
